Measured values from patent US20240208968A1, “ALPHA V BETA 6 AND ALPHA V BETA 1 INTEGRIN INHIBITORS AND USES THEREOF” (DiCE Molecules SV, Inc., priority 2021, published 2024).
Where a name gives a salt, the structure may show the parent alone.

How the values were obtained:
αvβ1 = αvβ1 (Homo sapiens, UniProt P05556+P06756); test: Solid Phase Integrin αvβ1 Assay; assay type: binding
How it was run: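 Wells coated with 1 µg/mL recombinant TGFb1-LAP and blocked with 2% BSA/TBST, 1 mM MnCl2; αvβ1 (added at 0.2 µg/mL) and compound incubated 90 min at room temperature. Bound integrin detected by streptavidin-HRP (20 min) and TMB after Mn-containing washes; IC50 by four-parameter logistic fit.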

αvβ6 = αvβ6 (Homo sapiens, UniProt P06756+P18564); test: Solid Phase Integrin αvβ6 Assay; assay type: binding
αvβ6, sequence (P06756 31-992 limits assumed): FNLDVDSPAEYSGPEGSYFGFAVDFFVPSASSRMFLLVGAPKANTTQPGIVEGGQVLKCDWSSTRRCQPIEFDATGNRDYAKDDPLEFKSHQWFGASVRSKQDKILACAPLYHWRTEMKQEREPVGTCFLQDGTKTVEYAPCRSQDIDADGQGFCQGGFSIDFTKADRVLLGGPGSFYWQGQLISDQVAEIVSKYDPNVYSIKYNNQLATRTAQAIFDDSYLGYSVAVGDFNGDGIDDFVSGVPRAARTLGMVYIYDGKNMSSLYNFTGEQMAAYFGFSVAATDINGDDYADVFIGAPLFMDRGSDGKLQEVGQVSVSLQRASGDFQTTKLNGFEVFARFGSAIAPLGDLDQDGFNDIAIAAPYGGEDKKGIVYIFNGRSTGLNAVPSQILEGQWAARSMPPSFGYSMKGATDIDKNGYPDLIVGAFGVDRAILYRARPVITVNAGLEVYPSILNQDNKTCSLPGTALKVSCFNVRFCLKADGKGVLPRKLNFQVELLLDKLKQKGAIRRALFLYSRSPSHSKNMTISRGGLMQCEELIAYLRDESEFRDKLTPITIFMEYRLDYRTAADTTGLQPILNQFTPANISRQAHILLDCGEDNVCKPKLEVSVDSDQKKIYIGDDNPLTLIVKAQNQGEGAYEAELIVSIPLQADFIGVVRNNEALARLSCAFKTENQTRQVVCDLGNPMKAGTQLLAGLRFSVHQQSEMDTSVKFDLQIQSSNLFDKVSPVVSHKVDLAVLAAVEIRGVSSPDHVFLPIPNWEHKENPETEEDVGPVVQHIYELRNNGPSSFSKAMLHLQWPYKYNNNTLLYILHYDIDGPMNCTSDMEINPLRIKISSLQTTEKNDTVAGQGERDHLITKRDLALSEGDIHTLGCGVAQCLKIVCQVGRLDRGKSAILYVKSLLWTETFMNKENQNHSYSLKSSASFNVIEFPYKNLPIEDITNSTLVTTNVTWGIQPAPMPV
αvβ6, sequence (P18564 22-707 limits assumed): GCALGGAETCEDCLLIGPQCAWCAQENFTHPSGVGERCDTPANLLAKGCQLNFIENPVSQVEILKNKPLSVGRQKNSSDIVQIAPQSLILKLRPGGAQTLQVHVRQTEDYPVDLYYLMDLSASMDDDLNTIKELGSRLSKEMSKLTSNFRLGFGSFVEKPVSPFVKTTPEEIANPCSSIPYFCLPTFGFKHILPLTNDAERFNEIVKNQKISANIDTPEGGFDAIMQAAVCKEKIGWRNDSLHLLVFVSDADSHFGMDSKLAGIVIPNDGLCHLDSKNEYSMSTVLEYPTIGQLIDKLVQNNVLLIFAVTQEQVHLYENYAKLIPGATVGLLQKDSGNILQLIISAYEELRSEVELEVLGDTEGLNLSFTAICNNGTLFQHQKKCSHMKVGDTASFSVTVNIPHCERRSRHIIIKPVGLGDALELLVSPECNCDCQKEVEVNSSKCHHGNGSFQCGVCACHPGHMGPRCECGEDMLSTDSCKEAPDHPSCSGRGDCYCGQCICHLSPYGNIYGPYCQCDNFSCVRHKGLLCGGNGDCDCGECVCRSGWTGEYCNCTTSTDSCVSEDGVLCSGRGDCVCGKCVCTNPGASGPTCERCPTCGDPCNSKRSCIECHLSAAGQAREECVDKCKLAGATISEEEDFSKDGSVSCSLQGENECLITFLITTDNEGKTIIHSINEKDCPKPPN
How it was run: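 Plates coated with 1 μg/mL recombinant TGFb1-LAP; compounds and αvβ6 (0.2 μg/mL diluted stock) incubated 1 h at room temperature in 2% BSA/TBST with 1 mM MnCl2. Bound integrin detected with streptavidin-HRP and TMB; IC50 from four-parameter logistic fits.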

αvβ1, sequence (P06756 31-992 limits assumed): as the sequence (P06756 31-992 limits assumed) above
αvβ1, sequence (P05556 21-728 limits assumed): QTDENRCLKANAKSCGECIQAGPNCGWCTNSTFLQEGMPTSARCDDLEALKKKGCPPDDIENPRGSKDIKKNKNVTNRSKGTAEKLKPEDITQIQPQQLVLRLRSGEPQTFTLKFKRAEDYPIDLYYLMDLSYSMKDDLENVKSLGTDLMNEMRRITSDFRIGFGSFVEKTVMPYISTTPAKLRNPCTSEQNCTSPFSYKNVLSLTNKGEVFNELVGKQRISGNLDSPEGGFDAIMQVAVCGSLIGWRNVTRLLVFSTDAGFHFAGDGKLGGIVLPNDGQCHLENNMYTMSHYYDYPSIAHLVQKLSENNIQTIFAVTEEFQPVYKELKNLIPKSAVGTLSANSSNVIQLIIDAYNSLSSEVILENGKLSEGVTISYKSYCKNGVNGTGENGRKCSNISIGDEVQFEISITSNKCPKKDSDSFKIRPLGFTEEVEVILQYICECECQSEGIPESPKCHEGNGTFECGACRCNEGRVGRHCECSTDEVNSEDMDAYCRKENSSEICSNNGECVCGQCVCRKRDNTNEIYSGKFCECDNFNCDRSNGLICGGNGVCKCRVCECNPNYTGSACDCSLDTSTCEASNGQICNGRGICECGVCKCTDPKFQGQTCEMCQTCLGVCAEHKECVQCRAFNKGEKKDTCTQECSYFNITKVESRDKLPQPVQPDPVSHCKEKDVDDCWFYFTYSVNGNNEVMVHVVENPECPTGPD

O=C(O)C[C@@H](NC(=O)[C@@H]1CCCN(CCCc2ccc3c(n2)NCCC3)C1)c1cccc2c1CCCC2 [Compound 212-B, 3-((R)-1-(3-(5,6,7,8-tetrahydro-1,8-naphthyridin-2-yl)propyl)piperidine-3-carboxamido)-3-(5,6,7,8-tetrahydronaphthalen-1-yl)propanoic acid]
IC50 (αvβ1): 100 to 1000 nM
IC50 (αvβ6): < 100 nM

O=C(NC[C@H](NC(=O)[C@@H]1CCCC[C@H]1C(=O)N1CCCC1)C(=O)O)[C@@H]1CCCN(CCCc2ccc3c(n2)NCCC3)C1 [Compound 264, (S)-2-((1R,2R)-2-(pyrrolidine-1-carbonyl)cyclohexane-1-carboxamido)-3-((R)-1-(3-(5,6,7,8-tetrahydro-1,8-naphthyridin-2-yl)propyl)piperidine-3-carboxamido)propanoic acid]
IC50 (αvβ1): < 100 nM
IC50 (αvβ6): < 100 nM

O=C(O)CC(NC(=O)[C@@H]1CCCN(CCCc2ccc3c(n2)NCCC3)C1)c1cc(C(F)(F)F)cc(C(F)(F)F)c1 (stereo partly drawn) [Compound 223, 3-(3,5-bis(trifluoromethyl)phenyl)-3-((R)-1-(3-(5,6,7,8-tetrahydro-1,8-naphthyridin-2-yl)propyl)piperidine-3-carboxamido)propanoic acid formic acid]
IC50 (αvβ1): < 100 nM
IC50 (αvβ6): < 100 nM

O=C(O)C[C@H](CO[C@@H]1CCCN(CCCc2ccc3c(n2)NCCC3)C1)c1cccc([C@@H]2CCOC2)c1 [Compound 491]
IC50 (αvβ1): < 100 nM
IC50 (αvβ6): < 100 nM

O=C(O)C[C@H](NC(=O)[C@@H]1CCCN(CCCc2ccc3c(n2)NCCC3)C1)c1ccc2c(c1)CCC2 [Compound 201-A, 3-(2,3-dihydro-1H-inden-5-yl)-3-((R)-1-(3-(5,6,7,8-tetrahydro-1,8-naphthyridin-2-yl)propyl)piperidine-3-carboxamido)propanoic acid hydrochloride]
IC50 (αvβ1): 100 to 1000 nM
IC50 (αvβ6): < 100 nM

CC1(CN[C@@H](CNC(=O)[C@@H]2CCCN(CCCc3ccc4c(n3)NCCC4)C2)C(=O)O)CCCCC1 [Compound 269, (S)-2-(((1-methylcyclohexyl)methyl)amino)-3-((R)-1-(3-(5,6,7,8-tetrahydro-1,8-naphthyridin-2-yl)propyl)piperidine-3-carboxamido)propanoic acid]
IC50 (αvβ1): > 1000 nM
IC50 (αvβ6): 100 to 1000 nM

O=C(O)C[C@H](CO[C@@H]1CCCN(CCCc2ccc3c(n2)NCCC3)C1)c1cccc(N2CCCC2=O)c1 [Compound 482]
IC50 (αvβ1): < 100 nM
IC50 (αvβ6): < 100 nM

C[C@H]1C[C@H](C(=O)NC[C@@H](C(=O)O)c2cccc(-c3ccccc3)c2)CN(CCCc2ccc3c(n2)NCCC3)C1 [Compound 644]
IC50 (αvβ1): 100 to 1000 nM
IC50 (αvβ6): 100 to 1000 nM

O=C(O)C[C@@H](NC(=O)[C@@H]1CCCN(CCCc2ccc3c(n2)NCCC3)C1)c1ccc(F)c(C2CC2)c1 [Compound 244-B, 3-(3-cyclopropyl-4-fluorophenyl)-3-((R)-1-(3-(5,6,7,8-tetrahydro-1,8-naphthyridin-2-yl)propyl)piperidine-3-carboxamido)propanoic acid]
IC50 (αvβ1): < 100 nM
IC50 (αvβ6): < 100 nM

O=C(CC[C@@H](NC(=O)[C@H]1CCCN1S(=O)(=O)c1ccccc1)C(=O)O)N[C@H]1CCN(C(=O)CCCc2ccc3c(n2)NCCC3)C1 [Compound 440]
IC50 (αvβ1): 100 to 1000 nM
IC50 (αvβ6): > 1000 nM

O=C(O)C[C@H](NC(=O)[C@@H]1CCCN(CCCc2ccc3c(n2)NCCC3)C1)c1cccc(OC2COC2)c1 [Compound 535]
IC50 (αvβ1): < 100 nM
IC50 (αvβ6): < 100 nM

O=C(N[C@@H](CNC(=O)[C@@H]1CCCN(CCCc2ccc3c(n2)NCCC3)C1)C(=O)O)c1cc(Cl)ccc1Cl [Compound 364]
IC50 (αvβ1): < 100 nM
IC50 (αvβ6): < 100 nM

CN(C[C@@H](CC(=O)O)c1ccccc1)[C@@H]1CCCN(CCCc2ccc3c(n2)NCCC3)C1 [Compound 296, (S)-4-(methyl((R)-1-(3-(5,6,7,8-tetrahydro-1,8-naphthyridin-2-yl)propyl)piperidin-3-yl)amino)-3-phenylbutanoic acid]
IC50 (αvβ1): 100 to 1000 nM
IC50 (αvβ6): > 1000 nM

O=C(NC[C@@H](C(=O)O)c1cc(F)cc(-c2ccccc2)c1)[C@@H]1CCCN(CCCc2ccc3c(n2)NCCC3)C1 [Compound 307]
IC50 (αvβ1): < 100 nM
IC50 (αvβ6): < 100 nM

O=C(NC[C@H](NC(=O)C12CCC(CC1)CC2)C(=O)O)[C@@H]1CCCN(CCCc2ccc3c(n2)NCCC3)C1 [Compound 270, (S)-2-(bicyclo[2.2.2]octane-1-carboxamido)-3-((R)-1-(3-(5,6,7,8-tetrahydro-1,8-naphthyridin-2-yl)propyl)piperidine-3-carboxamido)propanoic acid]
IC50 (αvβ1): < 100 nM
IC50 (αvβ6): < 100 nM

O=C(NC[C@@H](C(=O)O)c1cccc2cnn([C@H]3CCOC3)c12)[C@@H]1CCCN(CCCc2ccc3c(n2)NCCC3)C1 [Compound 320]
IC50 (αvβ1): > 1000 nM
IC50 (αvβ6): > 1000 nM

O=C(O)[C@](O)(CO[C@@H]1CCCN(Cc2ccc3c(n2)NCCC3)C1)c1ccccc1 [Compound 478]
IC50 (αvβ1): > 1000 nM
IC50 (αvβ6): > 1000 nM

O=C(O)C[C@H](C(=O)N[C@@H]1CCCN(CCCc2ccc3c(n2)NCCC3)C1)c1ccccc1 [Compound 299, (S)-4-oxo-3-phenyl-4-(((R)-1-(3-(5,6,7,8-tetrahydro-1,8-naphthyridin-2-yl)propyl)piperidin-3-yl)amino)butanoic acid]
IC50 (αvβ1): > 1000 nM
IC50 (αvβ6): > 1000 nM

CC1(C)CCCN(c2cccc([C@H](CC(=O)O)NC(=O)[C@@H]3CCCN(CCCc4ccc5c(n4)NCCC5)C3)c2)C1 [Compound 230, (S)-3-(3-(3,3-dimethylpiperidin-1-yl)phenyl)-3-((R)-1-(3-(5,6,7,8-tetrahydro-1,8-naphthyridin-2-yl)propyl)piperidine-3-carboxamido)propanoic acid]
IC50 (αvβ1): < 100 nM
IC50 (αvβ6): < 100 nM

CC1(C)CN(c2cccc([C@H](CC(=O)O)NC(=O)[C@@H]3CCCN(CCCc4ccc5c(n4)NCCC5)C3)c2)CCO1 [Compound 234, (S)-3-(3-(2,2-dimethylmorpholino)phenyl)-3-((R)-1-(3-(5,6,7,8-tetrahydro-1,8-naphthyridin-2-yl)propyl)piperidine-3-carboxamido)propanoic acid]
IC50 (αvβ1): < 100 nM
IC50 (αvβ6): < 100 nM

O=C(O)C[C@H](CO[C@@H]1CCCN(CCCc2ccc3c(n2)NCCC3)C1)c1cccc(-n2cccn2)c1 [Compound 492]
IC50 (αvβ1): < 100 nM
IC50 (αvβ6): < 100 nM

O=C(NC[C@H](C(=O)O)c1cccc(N2C[C@H]3CC[C@@H]2CO3)c1)[C@@H]1CCCN(CCCc2ccc3c(n2)NCCC3)C1 [Compound 565]
IC50 (αvβ1): < 100 nM
IC50 (αvβ6): < 100 nM

O=C(O)C[C@H](CO[C@@H]1CCCN(CCCc2ccc3c(n2)NCCC3)C1)c1cncc(C2CC2)c1 [Compound 489]
IC50 (αvβ1): < 100 nM
IC50 (αvβ6): < 100 nM

Cc1cc(C)n(-c2cccc([C@H](CC(=O)O)NC(=O)[C@@H]3CCCN(CCCc4ccc5c(n4)NCCC5)C3)c2)n1 [Compound 225, (S)-3-(3-(3,5-dimethyl-1H-pyrazol-1-yl)phenyl)-3-((R)-1-(3-(5,6,7,8-tetrahydro-1,8-naphthyridin-2-yl)propyl)piperidine-3-carboxamido)propanoic acid hydrochloride]
IC50 (αvβ1): < 100 nM
IC50 (αvβ6): < 100 nM

O=C(O)[C@@H](CCO[C@@H]1CCCN(CCCCc2ccc3c(n2)NCCC3)C1)Nc1ncnc2ccccc12 [Compound 405]
IC50 (αvβ1): 100 to 1000 nM
IC50 (αvβ6): < 100 nM

O=C(O)C[C@H](NC(=O)[C@@H]1CCCN(CCCCc2ccc3c(n2)NCCC3)C1)c1ccccc1 [Compound 288, (S)-3-phenyl-3-((R)-1-(4-(5,6,7,8-tetrahydro-1,8-naphthyridin-2-yl)butyl)piperidine-3-carboxamido)propanoic acid hydrochloride]
IC50 (αvβ1): 100 to 1000 nM
IC50 (αvβ6): < 100 nM

O=C(NC[C@H](C(=O)O)c1cccc2cn([C@H]3CCC(F)(F)C3)nc12)[C@@H]1CCCN(CCCc2ccc3c(n2)NCCC3)C1 [Compound 619]
IC50 (αvβ1): < 100 nM
IC50 (αvβ6): < 100 nM

C[C@@H]1C[C@@H](C(=O)NC[C@@H](C(=O)O)c2ccc3ccccc3c2)CN(CCCc2ccc3c(n2)NCCC3)C1 [Compound 639]
IC50 (αvβ1): 100 to 1000 nM
IC50 (αvβ6): 100 to 1000 nM

O=C(O)C[C@H](CC[C@@H]1CCCN(CCCc2ccc3c(n2)NCCC3)C1)c1ccccc1 [Compound 298-B, 3-phenyl-5-((R)-1-(3-(5,6,7,8-tetrahydro-1,8-naphthyridin-2-yl)propyl)piperidin-3-yl)pentanoi c acid]
IC50 (αvβ1): < 100 nM
IC50 (αvβ6): < 100 nM

CC1(C)COCCN1c1cccc([C@@H](CNC(=O)[C@@H]2CCCN(CCCc3ccc4c(n3)NCCC4)C2)C(=O)O)c1 [Compound 597]
IC50 (αvβ1): < 100 nM
IC50 (αvβ6): < 100 nM

O=C(O)C[C@H](NC(=O)[C@H]1CCCN(CCCCc2ccc3c(n2)NCCC3)C1)c1ccccc1 [Compound 287, (S)-3-phenyl-3-((S)-1-(4-(5,6,7,8-tetrahydro-1,8-naphthyridin-2-yl)butyl)piperidine-3-carboxamido)propanoic acid]
IC50 (αvβ1): > 1000 nM
IC50 (αvβ6): > 1000 nM

O=C(O)[C@H](CCO[C@@H]1CCCN(CCCc2ccc3c(n2)NCCC3)C1)Nc1ncnc2ccsc12 [Compound 470]
IC50 (αvβ1): 100 to 1000 nM
IC50 (αvβ6): 100 to 1000 nM

O=C(O)[C@@H](CCO[C@H]1CCCN(CCCc2ccc3c(n2)NCCC3)C1)NC(=O)C12CCC(CC1)CC2 [Compound 443]
IC50 (αvβ1): 100 to 1000 nM
IC50 (αvβ6): 100 to 1000 nM

O=C(O)C[C@@H](NC(=O)[C@@H]1CCCN(CCCc2ccc3c(n2)NCCC3)C1)c1cc(F)cc(C(F)(F)F)c1 [Compound 208-A, 3-(3-fluoro-5-(trifluoromethyl)phenyl)-3-((R)-1-(3-(5,6,7,8-tetrahydro-1,8-naphthyridin-2-yl)propyl)piperidine-3-carboxamido)propanoic acid]
IC50 (αvβ1): < 100 nM
IC50 (αvβ6): < 100 nM

O=C(N[C@@H](CNC(=O)[C@@H]1CCCN(CCCc2ccc3c(n2)NCCC3)C1)C(=O)O)c1ccccc1C1CC1 [Compound 371]
IC50 (αvβ1): < 100 nM
IC50 (αvβ6): < 100 nM
